Consider 1 compound from patent publication US20030104451A1, “Arrays using polymerized monomolecular films and methods for using and manufacturing the same” (priority 2001, published 2003).

The assay concerns the target T1, streptavidin (Streptomyces avidinii, UniProt P22629).
T1 construct: purchased Sigma-Aldrich
Kind of assay: Competitive inhibition of streptavidin capture on biotin-PDTF by free biotin. The assay is classed as binding. Particulars: streptavidin preincubated 30 min with free biotin; chip 0.25 pmol/monolayer biotin (1% biotin-PDTF). The text has this:
The remaining free protein (in this case streptavidin) concentration in solution can then be estimated with the MILD-MALDI-MS approach.
The surfaces were allowed to air dry.

For `O=C(O)CCCC[C@@H]1SC[C@@H]2NC(=O)N[C@@H]21` [biotin], the “free biotin excess over streptavidin at which competition is clearly seen” value was 100 -fold.
